Measured values published in patent US20250084078A1, “FUSED RING-SUBSTITUTED SIX-MEMBERED HETEROCYCLIC COMPOUND, AND PREPARATION METHOD THEREFOR AND USE THEREOF” (GENFLEFT THERAPEUTICS (SHANGHAI) INC., priority 2022, published 2025).

Target: HPK1 (Homo sapiens, UniProt Q92918)
Assay: SLP76 phosphorylation assay (intracellular HPK1 inhibitory activity, p-SLP76 S376 ELISA in Jurkat cells)
Conditions: p-SLP76 IC50, Jurkat, Clone E6-1 cells; 1 h compound pre-incubation; anti-CD3 beads stimulation 20 min; Phospho-SLP-76 (Ser376) ELISA

Sequence of HPK1 (Q92918 whole entry): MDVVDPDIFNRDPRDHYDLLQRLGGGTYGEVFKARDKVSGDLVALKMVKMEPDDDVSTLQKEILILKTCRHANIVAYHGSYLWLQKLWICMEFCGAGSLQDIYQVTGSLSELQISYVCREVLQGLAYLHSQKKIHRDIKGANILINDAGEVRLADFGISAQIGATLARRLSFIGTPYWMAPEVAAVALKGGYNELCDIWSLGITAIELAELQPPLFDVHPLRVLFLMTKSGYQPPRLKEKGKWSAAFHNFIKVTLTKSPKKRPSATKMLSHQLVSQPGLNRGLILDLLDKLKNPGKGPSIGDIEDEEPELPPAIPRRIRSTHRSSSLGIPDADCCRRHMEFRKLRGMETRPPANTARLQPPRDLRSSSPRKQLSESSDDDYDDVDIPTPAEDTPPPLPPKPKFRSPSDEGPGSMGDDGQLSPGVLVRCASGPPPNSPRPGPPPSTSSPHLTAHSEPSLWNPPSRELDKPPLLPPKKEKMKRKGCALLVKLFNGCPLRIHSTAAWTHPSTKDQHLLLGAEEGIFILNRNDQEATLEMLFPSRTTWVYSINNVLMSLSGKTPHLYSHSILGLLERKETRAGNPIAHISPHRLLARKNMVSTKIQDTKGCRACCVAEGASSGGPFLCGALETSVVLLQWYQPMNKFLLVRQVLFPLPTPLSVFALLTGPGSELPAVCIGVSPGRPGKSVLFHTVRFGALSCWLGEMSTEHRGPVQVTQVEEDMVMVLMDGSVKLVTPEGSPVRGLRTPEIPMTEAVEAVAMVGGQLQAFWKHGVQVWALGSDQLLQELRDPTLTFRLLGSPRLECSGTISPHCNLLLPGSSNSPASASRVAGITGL

Cc1c[nH]c2ncc(-c3cc4c(c([C@@H]5COCCN5)c3)CN(C(=O)N3CC[C@@H](F)C3)CC4)cc12 [Compound Z486, ((R)-3-fluoropyrrolidin-1-yl)(6-(3-methyl-1H-pyrrolo[2,3-b]pyridin-5-yl)-8-((R)-morpholin-3-yl)-3,4-dihydroisoquinolin-2(1H)-yl)methanone]
IC50: 153 nM

O=C(C1CCOCC1)N1CCc2c(cc(-c3cnc4[nH]cc(Cl)c4c3)cc2[C@@H]2COCCN2)C1 [Compound Z487, (R)-(7-(3-chloro-1H-pyrrolo[2,3-b]pyridin-5-yl)-5-(morpholin-3-yl)-3,4-dihydroisoquinolin-2(1H)-yl)(tetrahydro-2H-pyran-4-yl)methanone]
IC50: 153 nM

Cc1c[nH]c2ncc(-c3cc4c(c([C@@H]5COCCN5)c3)CN(C3CCN(C)CC3)CC4)cc12 [Compound Z498, (R)-3-(6-(3-methyl-1H-pyrrolo[2,3-b]pyridin-5-yl)-2-(1-methylpiperidin-4-yl)-1,2,3,4-tetrahydroisoquinolin-8-yl)morpholine]
IC50: 195 nM

O=S(=O)(C1CC1)N1CCc2cc(-c3cnc4[nH]cc(Cl)c4c3)cc([C@@H]3COCCN3)c2C1 [Compound Z499, (R)-3-(6-(3-chloro-1H-pyrrolo[2,3-b]pyridin-5-yl)-2-(cyclopropylsulfonyl)-1,2,3,4-tetrahydroisoquinolin-8-yl)morpholine]
IC50: 219 nM

C[C@@H]1COCCN1C(=O)N1CCc2cc(-c3cnc4[nH]cc(Cl)c4c3)cc([C@@H]3COCCN3)c2C1 [Compound Z500, (6-(3-chloro-1H-pyrrolo[2,3-b]pyridin-5-yl)-8-((R)-morpholin-3-yl)-3,4-dihydroisoquinolin-2(1H)-yl)((R)-3-methylmorpholine)methanone]
IC50: 143 nM

CS(=O)(=O)N1CCc2cc(-c3cnc4[nH]cc(Cl)c4c3)cc([C@@H]3COCCN3)c2C1 [Compound Z501, (R)-3-(6-(3-chloro-1H-pyrrolo[2,3-b]pyridin-5-yl)-2-(methylsulfonyl)-1,2,3,4-tetrahydroisoquinolin-8-yl)morpholine]
IC50: 285 nM

C[C@@H]1CN(C(=O)N2CCc3cc(-c4cnc5[nH]cc(Cl)c5c4)cc([C@@H]4COCCN4)c3C2)CCO1 [Compound Z502, (6-(3-chloro-1H-pyrrolo[2,3-b]pyridin-5-yl)-8-((R)-morpholin-3-yl)-3,4-dihydroisoquinolin-2(1H)-yl)((R)-2-methylmorpholino)methanone]
IC50: 169 nM

CC1(C)COCCN1C(=O)N1CCc2cc(-c3cnc4[nH]cc(Cl)c4c3)cc([C@@H]3COCCN3)c2C1 [Compound Z503, (R)-(6-(3-chloro-1H-pyrrolo[2,3-b]pyridin-5-yl)-8-(morpholin-3-yl)-3,4-dihydroisoquinolin-2(1H)-yl)(3,3-dimethylmorpholino)methanone]
IC50: 168 nM

Cc1c[nH]c2ncc(-c3cc4c(c([C@@H]5COCCN5)c3)CN(C(=O)C3CC5CCC(C3)O5)CC4)cc12 (stereo partly drawn) [Compound Z504, (8-oxabicyclo[3.2.1]octan-3-yl)(6-(3-methyl-1H-pyrrolo[2,3-b]pyridin-5-yl)-8[(R)-morpholin-3-yl)-3,4-dihydroisoquinolin-2(1H)-yl)-methanone]
IC50: 232 nM

Cc1c[nH]c2ncc(-c3cc4c(c([C@@H]5COCCN5)c3)CN(C(=O)C3(C)COC3)CC4)cc12 [Compound Z505, (R)-(6-(3-methyl-1H-pyrrolo[2,3-b]pyridin-5-yl)-8-(morpholin-3-yl)-3,4-dihydroisoquinolin-2(1H)-yl)(3-methyloxetan-3-yl)methanone]
IC50: 263 nM

CC(C)(O)C(=O)N1CCc2cc(-c3cnc4[nH]cc(C#N)c4c3)cc([C@@H]3COCCN3)c2C1 [Compound Z506, (R)-5-(2-(2-hydroxy-2-methylpropanoyl)-8-(morpholin-3-yl)-1,2,3,4-tetrahydroisoquinolin-6-yl)-1H-pyrrolo[2,3-b]pyridine-3-carbonitrile]
IC50: 685 nM

C=Cc1c[nH]c2ncc(-c3cc4c(c([C@@H]5COCCN5)c3)CN(C(=O)C(C)(C)O)CC4)cc12 [Compound Z508, (R)-2-hydroxy-2-methyl-1-(8-(morpholin-3-yl)-6-(3-vinyl-1H-pyrrolo[2,3-b]pyridin-5-yl)-3,4-dihydroisoquinolin-2(1H)-yl)propan-1-one]
IC50: 304 nM

Cc1c(F)[nH]c2ncc(-c3cc4c(c([C@@H]5COCCN5)c3)CN(C(=O)C(C)(C)O)CC4)cc12 [Compound Z510, (R)-1-(6-(2-fluoro-3-methyl-1H-pyrrolo[2,3-b]pyridin-5-yl)-8-(morpholin-3-yl)-3,4-tetrahydroisoquinolin-2(1H)-yl)-2-hydroxy-2-methylpropan-1-one]
IC50: 283 nM

CCc1c(Cl)[nH]c2ncc(-c3cc4c(c([C@@H]5COCCN5)c3)CN(C(=O)N3CC5CCC(C3)O5)CC4)cc12 [Compound Z514, (8-oxo-3-azabicyclo[3.2.1]octane-3-yl)(6-(2-chloro-3-ethyl-1H-pyrrolo[2,3-b]pyridin-5-yl)-8-((R)-morpholin-3-yl)-3,4-dihydroisoquinolin-2(1H)-yl)methanone]
IC50: 134 nM

N#Cc1c[nH]c2ncc(-c3cc4c(c([C@@H]5COCCN5)c3)CN(C(=O)N3CC5CCC(C3)O5)CC4)cc12 [Compound Z515, 5-(2-(8-oxa-3-azabicyclo[3.2.1]octane-3-carbonyl)-8-((R)-morpholin-3-yl)-1,2,3,4-tetrahydroisoquinolin-6-yl)-1H-pyrrolo[2,3-b]pyridine-3-carbonitrile]
IC50: 173 nM

Cc1c[nH]c2ncc(-c3cc4c(c([C@@H]5COCCN5)c3)CN(C(=O)N3CC5CC(C3)O5)CC4)cc12 [Compound Z516, (6-oxa-3-azabicyclo[3.1.1]heptan-3-yl)-(6-(3-methyl-1H-pyrrolo[2,3-b]pyridin-5-yl)-8((R)-morpholin-3-yl)-3,4-dihydroisoquinolin-2(1H)-yl)methanone]
IC50: 161 nM

Cc1c[nH]c2ncc(-c3cc4c(c([C@@H]5COCCN5)c3)CN(C(=O)N3C[C@@H](C)O[C@@H](C)C3)CC4)cc12 [Compound Z519, ((2R,6S)-2,6-dimethylmorpholine)(6-(3-methyl-1H-pyrrolo[2,3-b]pyridin-5-yl)-8-((R)-morpholin-3-yl)-3,4-dihydroisoquinolin-2-1H-yl)methanone]
IC50: 197 nM

O=C(N1CCc2cc(-c3cnc4[nH]cc(F)c4n3)cc([C@@H]3COCCN3)c2C1)N1CC2CCC(C1)O2 [Compound Z522, (8-oxa-3-azabicyclo[3.2.1]octan-3-yl)(6-(7-fluoro-5H-pyrrolo[2,3-b]pyrazin-2-yl)-8-((R)-morpholin-3-yl)-3,4-dihydroisoquinolin-2(1H)-yl)methanone]
IC50: 110 nM

O=C(N1CCOCC1)N1CCc2cc(-c3cnc4[nH]cc(Cl)c4n3)cc([C@@H]3COCCN3)c2C1 [Compound Z527, (R)-(6-(7-chloro-5H-pyrrolo[2,3-b]pyrazin-2-yl)-8-(morpholin-3-yl)-3,4-dihydroisoquinolin-2(1H)-yl)(morpholino)methanone]
IC50: 164 nM

Cc1cc(C(=O)N2CCc3cc(-c4cnc5[nH]cc(Cl)c5c4)cc([C@@H]4COCCN4)c3C2)nc(C)n1 [Compound Z531, (R)-(6-(3-chloro-1H-pyrrolo[2,3-b]pyridin-5-yl)-8-(morpholin-3-yl)-3,4-dihydroisoquinolin-2(1H)-yl)(2,6-dimethylpyrimidin-4-yl)methanone]
IC50: 385 nM

Cc1ncc(C(=O)N2CCc3cc(-c4cnc5[nH]cc(Cl)c5c4)cc([C@@H]4COCCN4)c3C2)cn1 [Compound Z532, (R)-(6-(3-50 chloro-1H-pyrrolo[2,3-b]pyridin-5-yl)-8-(morpholin-3-yl)-3,4-dihydroisoquinolin-2(1H)-yl)(2-methylpyrimidin-5-yl)methanone]
IC50: 394 nM

CCc1c[nH]c2ncc(-c3cc4c(c([C@@H]5COCCN5)c3)CN(C(=O)c3cnc(C)nc3)CC4)nc12 [Compound Z533, (R)-(6-(7-ethyl-5H-pyrrolo[2,3-b]pyrazin-2-yl)-8-(morpholin-3-yl)-3,4-dihydroisoquinolin-2(1H)-yl)(2-methylpyrimidin-5-yl)methanone]
IC50: 229 nM

Cc1c[nH]c2ncc(-c3cc4c(c([C@@H]5COCCN5)c3)CN(CC3(O)CCOCC3)CC4)cc12 [Compound Z538, (R)-4-((6-(3-methyl-1H-pyrrolo[2,3-b]pyridin-5-yl)-8-(morpholin-3-yl)-3,4-dihydroisoquinolin-2(1H)-yl)methyl)tetrahydro-2H-pyran-4-ol]
IC50: 1050 nM

CCc1c[nH]c2ncc(-c3cc4c(c([C@@H]5COCCN5)c3)CN(C(=O)C(C)(C)O)CC4)nc12 [Compound Z540, (R)-1-(6-(7-ethyl-5H-pyrrolo[2,3-b]pyrazin-2-yl)-8-(morpholin-3-yl)-3,4-dihydroisoquinolin-2(1H)-yl)-2-hydroxy-2-methylpropan-1-one]
IC50: 524 nM

O=C(C1CCOCC1)N1CCc2cc(-c3cnc4[nH]cc(Cl)c4c3)cc([C@@H]3COCCN3)c2C1 [Compound Z543, (R)-[6-(3-chloro-1H-pyrrolo[2,3-b]pyridin-5-yl)-8-(morpholin-3-yl)-3,4-dihydroisoquinolin-2(1H)-yl](tetrahydro-2H-pyran-4-yl)methanone]
IC50: 236 nM

Cc1cc(-c2c[nH]c3ncc(-c4cc5c(c([C@@H]6COCCN6)c4)CN(C(=O)C(C)(C)O)CC5)cc23)c(C)cn1 [Compound Z545, (R)-1-(6-(3-(2,5-dimethylpyridin-4-yl)-1H-pyrrolo[2,3-b]pyridin-5-yl)-8-(morpholin-3-yl)-3,4-dihydroisoquinolin-2(1H)-yl)-2-hydroxy-2-methylpropan-1-one]
IC50: 560 nM

O=C(N1CCc2cc(-c3cnc4[nH]cc(Cl)c4n3)cc([C@@H]3COCCN3)c2C1)N1CC2CCC1CO2 (stereo partly drawn) [Compound Z550, (2-oxa-5-azabicyclo[2.2.2]octan-5-yl)(6-(7-chloro-5H-pyrrolo[2,3-b]pyrazin-2-yl)-8-((R)-morpholin-3-yl)-3,4-dihydroisoquinolin-2(1H)-yl)methanone]
IC50: 117 nM

Cc1c[nH]c2ncc(-c3cc4c(c([C@@H]5COCCN5)c3)CN(C(=O)N3CC5CCC(C3)C5O)CC4)cc12 (stereo partly drawn) [Compound Z551, (8-hydroxy-3-azabicyclo[3.2.1]octan-3-yl)(6-(3-methyl-1H-pyrrolo[2,3-b]pyridin-5-yl)-8-((R)-morpholin-3-yl)-3,4-dihydroisoquinolin-2(1H)-yl)methanone]
IC50: 498 nM
